# Data published in US20030082112A1, “Composition” (Unilever Home & Personal Care USA, Division of Conopco, Inc., priority 2001, published 2003).
# Experiment: Storage stability of the alkyl hydroxybenzoate in the alkaline chalk oral care formulation
# Type: physicochemical
# Conditions: 37° C. for two months; 1.0 w/w % in fine ground natural chalk formulation of the Example
# Method: The following formulation is a composition according to the invention and is made by ordinary methods known to a skilled person.
# This octyl parahydroxy benzoic acid in this formulation was stable at 37° C. for two months.
structure (smiles),measurement,value
CCCCCCCCOC(=O)c1ccc(O)cc1 [octyl parahydroxy benzoic acid],stability in the formulation,stable
